Source: patent US20060204980A1, “Colorectal cancer therapies” (priority 2004, published 2006)
“Also recorded” adds a separate entry of the source.

Assays:
[1] = tested on: p53^+/+ HCT116 colorectal carcinoma cells; experiment: Western blotting of p53 pathway proteins in treated p53+/+ HCT116 cells; format: cell-based
Experimental: (§1) Cells were collected and centrifuged at 3,000 rpm for 5 minutes at 4° C., and washed in PBS (pH 7.2). The cell pellet was solubilized in lysis buffer (20 mM Tris, pH 7.2, 0.5% deoxycholate, 1% Triton X-100, 0.1% SDS, 150 mM NaCl, 1 mM EDTA) containing proteases inhibitors (Complete, Roche Applied Science) for 30 min at 4° C. The lysate was cleared by centrifugation for 15 minutes, and protein concentration was evaluated using a Bio-Rad protein assay system (Bio-Rad Laboratories, Hercules, Calif.). Samples (30 μg) were separated by SDS-polyacrylamide gel, transferred to nylon membranes (Millipore), and incubated with primary antibodies to p53 (Oncogene Research Products, FL-393, Santa Cruz Biotechnology, Inc., Santa Cruz, Calif.), p21^Waf1/Cip1 (Oncogene Research Products), XIAP (BD Transduction Laboratories), survivin (NOVUS Biologicals, Littleton, Colo.), MDM2 (Santa Cruz Biotechnology, Inc.), p14^ARF (NOVUS Biologicals), caspase-3 (Cell Signaling Technology), cleaved caspase-3 (Cell Signaling Technology), β-catenin (BD Transduction Laboratories), cyclin B1 (GNS1, Santa Cruz Biotechnology, Inc.), GSK3β (Santa Cruz Biotechnology, Inc.), or β-sactin (Sigma) with detection of reactive bands by chemiluminescence (Amersham). Cells were analyzed for hypodiploid DNA content by propidium iodide staining and flow cytometry as described in O'Connor et al., Cancer Cell, 2:43-54 (2002). Chemicals whose source is not explicitly listed were or can be obtained from Sigma.
To explore the link between GSK3β inhibition and p53 modulation, in vivo, HCT116 cells were treated with Li, TDZD or SB216763, and analyzed cells by Western blotting. p53^+/+ or p53^−/− HCT116 cells were incubated with the following GSK3β inhibitors, LiCl (Sigma, 30 mM), thiadiazolidinone-8 (TDZD) (Calbiochem, 0-20 μM), or SB216763 (Sigma, 20 μM), cells were harvested after 6-24 hours, and samples were analyzed by Western blotting as described in Example 2. […]

p34^cdc2 = biological target: T1, p34^cdc2 (Homo sapiens, UniProt P06493); experiment: H1 histone kinase assay of p34cdc2 immunoprecipitated from treated HCT116 cells; format: cell-based
T1 construct: p34^cdc2 that was immunoprecipitated from HCT116 cells treated with vehicle for 6 to 48 hours consistently phosphorylated histone H1; endogenous in cells; host or cells: HCT116 colorectal carcinoma cells
T1 sequence (P06493 whole entry): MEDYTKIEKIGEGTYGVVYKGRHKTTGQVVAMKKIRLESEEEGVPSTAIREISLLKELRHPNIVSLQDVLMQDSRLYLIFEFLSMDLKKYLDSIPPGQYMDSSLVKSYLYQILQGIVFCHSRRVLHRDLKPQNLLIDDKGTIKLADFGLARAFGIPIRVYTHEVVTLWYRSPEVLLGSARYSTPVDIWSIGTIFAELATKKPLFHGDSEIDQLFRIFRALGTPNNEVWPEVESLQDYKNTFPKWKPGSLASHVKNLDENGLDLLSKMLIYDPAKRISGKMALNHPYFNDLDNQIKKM
T1 sequence (P14635 whole entry partner): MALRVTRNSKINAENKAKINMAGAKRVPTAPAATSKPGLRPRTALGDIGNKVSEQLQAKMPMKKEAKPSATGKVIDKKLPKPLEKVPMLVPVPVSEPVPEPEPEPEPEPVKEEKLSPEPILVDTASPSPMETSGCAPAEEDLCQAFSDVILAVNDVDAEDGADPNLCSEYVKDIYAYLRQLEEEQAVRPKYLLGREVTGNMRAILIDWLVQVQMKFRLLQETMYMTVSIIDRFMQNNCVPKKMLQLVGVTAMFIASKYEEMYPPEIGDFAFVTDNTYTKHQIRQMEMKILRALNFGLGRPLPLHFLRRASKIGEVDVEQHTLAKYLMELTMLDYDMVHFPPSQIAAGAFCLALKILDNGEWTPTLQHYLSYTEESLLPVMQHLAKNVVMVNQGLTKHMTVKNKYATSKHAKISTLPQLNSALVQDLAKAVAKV
Experimental: As shown in FIG. 2C (lanes labeled None), p34^cdc2 that was immunoprecipitated from HCT116 cells treated with vehicle for 6 to 48 hours consistently phosphorylated histone H1.

p53^−/− HCT116 cells = experiment: Hypodiploid DNA content by propidium iodide staining and flow cytometry, p53-/- HCT116; format: cell-based
Experimental: as §1
The functional consequences of GSK3β inhibition were explored. Source and maintenance of p53^+/+ and p53^−/− HCT116 colorectal carcinoma cells were as described in Example 2. […] Alternatively, cells were incubated with GSK3β inhibitors LiCl (30 mM) or TDZD (20 μM), harvested after 48 hours and analyzed for cell viability (propidium iodide, red channel) and active caspase-3/7 activity (green channel, […]®, from Chemicon International Inc., Temecula, Calif.), by multiparametric flow cytometry as reported previously in Kim et al., Lancet, 362:205-209 (2003). […]

Cdk2 = Cdk2 (Homo sapiens, UniProt P24941); settings: in vivo, Knockaert et al.; cited from earlier work

Compound: CC(C)[C@H](CO)Nc1nc(Nc2cccc(Cl)c2)c2ncn(C(C)C)c2n1 [Purvalanol A]
- MDM2 expression (Western blot) ([1]; HCT116 cells): reduced expression
- p14^ARF expression (Western blot) ([1]; HCT116 cells, relative to vehicle): upregulation of p14^ARF
- XIAP expression (Western blot) ([1]; p53+/+ HCT116): no changes in the expression
- survivin expression (Western blot) ([1]; p53+/+ HCT116): loss of survivin expression; also recorded: time-dependent downregulation of survivin
- caspase-3 cleavage (Western blot) ([1]; p53+/+ HCT116, 10 μM, 6-48 hour): time-dependent cleavage of 32 kD proform caspase-3 to active caspase-3 fragments
- p21^Waf1/Cip1 expression (Western blot) ([1]; p53+/+ HCT116, 6-24 hours): upregulation of p21^Waf1/Cip1
- p53 expression (Western blot) ([1]; p53+/+ HCT116, 6-24 hours): time-dependent accumulation of p53
- p34^cdc2 kinase activity (histone H1 phosphorylation) (p34^cdc2; 6 and 12 hours of treatment): no apparent inhibition of p34^cdc2 kinase activity
- p34^cdc2 kinase activity (histone H1 phosphorylation) (p34^cdc2; 24 and 48 hours of treatment): did appear to suppress histone H1 phosphorylation
- apoptosis / cell death (hypodiploid DNA content) (p53^−/− HCT116 cells; 0-20 μM, 48 hours): largely resistant to Purvalanol A-induced cell death
- cell cycle effect (DNA content) (p53^−/− HCT116 cells; 0-20 μM, 48 hours): sustained G2/M arrest
- enhancement of cell death in survivin-ablated (S4) vs VIII transfectants treated with Purvalanol A (p53^−/− HCT116 cells; survivin RNAi (S4), Purvalanol A 5 μM, 24 hour): 2.5 fold
- suppression of Cdk2 (Cdk2): equally effective
